From patent publication US10183950B2, “Thienopyrimidine inhibitors of atypical protein kinase C” (Cancer Research Technology Limited, priority 2011, dated 2019)

Molecular target: T1, kinase-domain human PKCι (Homo sapiens, UniProt P41743)
T1 construct: Recombinant, kinase-domain human PKCι is expressed and purified in-house; made in house
T1 sequence (P41743 254-522 limits assumed): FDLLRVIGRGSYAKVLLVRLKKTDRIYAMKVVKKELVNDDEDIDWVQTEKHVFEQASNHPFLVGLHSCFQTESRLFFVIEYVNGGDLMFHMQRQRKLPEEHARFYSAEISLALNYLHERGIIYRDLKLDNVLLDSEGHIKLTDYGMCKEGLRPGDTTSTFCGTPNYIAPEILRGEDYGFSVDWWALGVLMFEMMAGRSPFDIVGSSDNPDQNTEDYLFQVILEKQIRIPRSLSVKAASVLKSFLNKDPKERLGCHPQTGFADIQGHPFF
Assay: PKCι IC50 IMAP fluorescence polarisation assay, kinase-domain enzyme
Type: biochemical
Details: kinase domain PKCi at 2 μM ATP; read-out: IC50 in IMAP assay against kinase domain PKCi

Row | IC50 | SMILES
1 | 0.1 to 1 µM | C[C@H](N)CNc1nc(-c2ccncc2)nc2c1sc1cccc(Cl)c12 [compound 373, (S)-N*1*-(9-Chloro-2-pyridin-4-yl-benzo[4,5]thieno[3,2-d]pyrimidin-4-yl)-propane-1,2-diamine]
2 | 10 to 40 µM | CC(C)(C)c1ccc(-c2cc3nc(-c4ccncc4)nc(NCCN)c3s2)cc1 [compound 360, N*1*-[6-(4-tert-Butyl-phenyl)-2-pyridin-4-yl-thieno[3,2-d]pyrimidin-4-yl]-ethane-1,2-diamine]
3 | 1 to 10 µM | Cc1csc2c(N[C@H]3CCNC3)nc(-c3ccncc3)nc12 [compound 364, (7-Methyl-2-pyridin-4-yl-thieno[3,2-d]pyrimidin-4-yl)-(S)-pyrrolidin-3-yl-amine]
4 | 1 to 10 µM | Cc1cc(C)c2c(n1)sc1c(N3CCNCC3)nc(-c3ccncc3)nc12 [compound 380, 7,9-Dimethyl-4-piperazin-1-yl-2-pyridin-4-yl-pyrido[3′,2′:4,5]thieno[3,2-d]pyrimidine]
5 | 1 to 10 µM | Clc1cccc2sc3c(OC[C@@H]4CCCN4)nc(-c4ccncc4)nc3c12 [compound 479, 9-Chloro-2-pyridin-4-yl-4-((S)-1-pyrrolidin-2-ylmethoxy)-benzo[4,5]thieno[3,2-d]pyrimidine]
6 | 10 to 40 µM | Cc1csc2c(O[C@H]3CCNC3)nc(-c3ccncc3)nc12 [compound 483, 7-Methyl-2-pyridin-4-yl-4-((S)-pyrrolidin-3-yloxy)-thieno[3,2-d]pyrimidine]

Same assay, conditions: kinase domain PKCi at 2 μM ATP; read-out: IC50 in IMAP assay against kinase domain PKCi (Activity)

Row | SMILES | IC50
7 | c1cc(-c2nc(O[C@H]3CCNC3)c3c4c(sc3n2)CCCC4)ccn1 [compound 140, 2-Pyridin-4-yl-4-((S)-pyrrolidin-3-yloxy)-5,6,7,8-tetrahydro-benzo[4,5]thieno[2,3-d]pyrimidine] | 1 to 10 µM
8 | N[C@H](COc1nc(-c2ccncc2)nc2sc3c(c12)CCCC3)Cc1ccccc1 [compound 143, (S)-2-Phenyl-1-(2-pyridin-4-yl-5,6,7,8-tetrahydro-benzo[4,5]thieno[2,3-d]pyrimidin-4-yloxymethyl)-ethylamine] | 0.1 to 1 µM
9 | c1cncc(CN2CCN(c3nc(-c4ccncc4)nc4sc5c(c34)CCCC5)CC2)c1 [compound 130, 2-Pyridin-4-yl-4-(4-pyridin-3-ylmethyl-piperazin-1-yl)-5,6,7,8-tetrahydro-benzo[4,5]thieno[2,3-d]pyrimidine] | 10 to 40 µM
10 | C[C@H]1CN(c2nc(-c3ccncc3)nc3sc4c(c23)CCCC4)CCN1 [compound 8, 4-((S)-3-Methyl-piperazin-1-yl)-2-pyridin-4-yl-5,6,7,8-tetrahydro-benzo[4,5]thieno[2,3-d]pyrimidine] | 0.1 to 1 µM
11 | Brc1cnccc1CN1CCN(c2nc(-c3ccncc3)nc3sc4c(c23)CCCC4)CC1 [compound 131, 4-[4-(3-Bromo-pyridin-4-ylmethyl)-piperazin-1-yl]-2-pyridin-4-yl-5,6,7,8-tetrahydro-benzo[4,5]thieno[2,3-d]pyrimidine] | 10 to 40 µM
12 | c1cc(-c2nc(N3CCCNCC3)c3c4c(sc3n2)CCCC4)ccn1 [compound 14, 4-[1,4]Diazepan-1-yl-2-pyridin-4-yl-5,6,7,8-tetrahydro-benzo[4,5]thieno[2,3-d]pyrimidine] | 0.1 to 1 µM
13 | NCCNc1nc(-c2ccncc2)nc2sc3c(c12)CCCCCC3 [compound 24, N*1*-(2-Pyridin-4-yl-5,6,7,8,9,10-hexahydro-11-thia-1,3-diaza-cycloocta[a]inden-4-yl)-ethane-1,2-diamine] | 0.1 to 1 µM
14 | C[C@@H]1CN[C@@H](C)CN1c1nc(-c2ccncc2)nc2sc3c(c12)CCCC3 [compound 10, 4-((2R,5S)-2,5-Dimethyl-piperazin-1-yl)-2-pyridin-4-yl-5,6,7,8-tetrahydro-benzo[4,5]thieno[2,3-d]pyrimidine] | 1 to 10 µM
15 | CNCCOc1nc(-c2ccncc2)nc2sc3c(c12)CCCC3 [compound 137, Methyl-[2-(2-pyridin-4-yl-5,6,7,8-tetrahydro-benzo[4,5]thieno[2,3-d]pyrimidin-4-yloxy)-ethyl]-amine] | 1 to 10 µM
16 | c1ccc(CN2CCN(c3nc(-c4ccncc4)nc4sc5c(c34)CCCC5)CC2)cc1 [compound 116, 4-(4-Benzyl-piperazin-1-yl)-2-pyridin-4-yl-5,6,7,8-tetrahydro-benzo[4,5]thieno[2,3-d]pyrimidine] | 10 to 40 µM
17 | c1cc(-c2nc(OC[C@H]3CCCN3)c3c4c(sc3n2)CCCC4)ccn1 [compound 153, 2-Pyridin-4-yl-4-((R)-1-pyrrolidin-2-ylmethoxy)-5,6,7,8-tetrahydro-benzo[4,5]thieno[2,3-d]pyrimidine] | 1 to 10 µM
18 | N[C@@H](COc1nc(-c2ccncc2)nc2sc3c(c12)CCCC3)Cc1ccccc1 [compound 142, (R)-2-Phenyl-1-(2-pyridin-4-yl-5,6,7,8-tetrahydro-benzo[4,5]thieno[2,3-d]pyrimidin-4-yloxymethyl)-ethylamine] | 10 to 40 µM
19 | Cc1sc2nc(-c3ccncc3)nc(N3CCCNCC3)c2c1-c1ccccc1 [compound 92, 4-[1,4]Diazepan-1-yl-6-methyl-5-phenyl-2-pyridin-4-yl-thieno[2,3-d]pyrimidine] | 1 to 10 µM
20 | Clc1cccc(CN2CCN(c3nc(-c4ccncc4)nc4sc5c(c34)CCCC5)CC2)c1 [compound 124, 4-[4-(3-Chloro-benzyl)-piperazin-1-yl]-2-pyridin-4-yl-5,6,7,8-tetrahydro-benzo[4,5]thieno[2,3-d]pyrimidine] | 10 to 40 µM
21 | C[C@H](N)CNc1nc(-c2ccncc2)nc2sc3c(c12)CCCCCC3 [compound 25, (S)-N*1*-(2-Pyridin-4-yl-5,6,7,8,9, 10-hexahydro-11-thia-1,3-diaza-cycloocta[a]inden-4-yl)-propane-1,2-diamine] | 1 to 10 µM
22 | c1cc(-c2nc(N3CCCNCC3)c3c4c(sc3n2)CCCCC4)ccn1 [compound 86, 4-[1,4]Diazepan-1-yl-2-pyridin-4-yl-6,7,8,9-tetrahydro-5H-10-thia-1,3-diaza-benzo[a]azulene] | 0.1 to 1 µM

The remaining lines, values ahead:

Row | IC50 | SMILES
23 | 1 to 10 µM | Cc1n[nH]c(C)c1-c1nc(NC[C@@H](N)Cc2ccccc2)c2c3c(sc2n1)CCCC3 [compound 184, (S)-N*1*-[2-(3,5-Dimethyl-1H-pyrazol-4-yl)-5,6,7,8-tetrahydro-benzo[4,5]thieno[2,3-d]pyrimidin-4-yl]-3-phenyl-propane-1,2-diamine]
24 | 10 to 40 µM | N[C@H](COc1nc(-c2ccncc2)nc2sc3c(c12)CCCC3)Cc1ccc2ccccc2c1 [compound 160, (S)-1-Naphthalen-2-ylmethyl-2-(2-pyridin-4-yl-5,6,7,8-tetrahydro-benzo[4,5]thieno[2,3-d]pyrimidin-4-yloxy)-ethylamine]
25 | 1 to 10 µM | N[C@H](COc1nc(-c2ccncc2)nc2sc3c(c12)CCCC3)Cc1ccccc1F [compound 164, (S)-1-(2-Fluoro-benzyl)-2-(2-pyridin-4-yl-5,6,7,8-tetrahydro-benzo[4,5]thieno[2,3-d]pyrimidin-4-yloxy)-ethylamine]
26 | 1 to 10 µM | N[C@H](COc1nc(-c2ccncc2)nc2sc3c(c12)CCCC3)Cc1ccc(Br)cc1 [compound 171, (S)-1-(4-Bromo-benzyl)-2-(2-pyridin-4-yl-5,6,7,8-tetrahydro-benzo[4,5]thieno[2,3-d]pyrimidin-4-yloxy)-ethylamine]
27 | 0.1 to 1 µM | C[C@H](N)CNc1nc(-c2cn[nH]c2)nc2sc3c(c12)CCCC3 [compound 187, (S)-N*1*-[2-(1H-Pyrazol-4-yl)-5,6,7,8-tetrahydro-benzo[4,5]thieno[2,3-d]pyrimidin-4-yl]-propane-1,2-diamine]
